Assay results from ChEMBL document CHEMBL5042509, “Benzophenone Glucosides and B-Type Proanthocyanidin Dimers from Zambian Cassia abbreviata and Their Trypanocidal Activities” (J Nat Prod, 2022).
In brackets after ≈: the same amount, converted by molar mass.

What was measured:
[1] = test system: Trypanosoma brucei brucei; test: Trypanocidal activity against Trypanosoma brucei brucei GUTat3.1 assessed as parasite growth inhibition at 50 ug/ml incubated for 3 days by Celltiter-Glo luminescence assay; assay type: functional; set-up: scale not given: the % may be the effect or the level left; settings: dose 50 µg/ml; time 3 day
[2] = test system: Trypanosoma brucei rhodesiense; test: Trypanocidal activity against Trypanosoma brucei rhodesiense IL1501 assessed as parasite growth inhibition at 50 ug/ml incubated for 3 days by Celltiter-Glo luminescence assay; assay type: functional; set-up: scale not given: the % may be the effect or the level left; settings: dose 50 µg/ml; time 3 day
[3] = test system: Trypanosoma evansi; test: Trypanocidal activity against Trypanosoma evansi assessed as parasite growth inhibition incubated for 3 days by Celltiter-Glo luminescence assay; assay type: functional, organism-based; settings: 72 h
[4] = test system: Trypanosoma brucei rhodesiense; test: Trypanocidal activity against Trypanosoma brucei rhodesiense assessed as parasite growth inhibition incubated for 3 days by Celltiter-Glo luminescence assay; assay type: functional, organism-based; settings: 72 h
[5] = test system: Trypanosoma evansi; test: Trypanocidal activity against Trypanosoma evansi assessed as parasite growth inhibition at 50 ug/ml incubated for 3 days by Celltiter-Glo luminescence assay; assay type: functional; set-up: scale not given: the % may be the effect or the level left; settings: dose 50 µg/ml; time 3 day
[6] = test system: Trypanosoma congolense; test: Trypanocidal activity against Trypanosoma congolense IL3000 assessed as parasite growth inhibition at 50 ug/ml incubated for 3 days by Celltiter-Glo luminescence assay; set-up: scale not given: the % may be the effect or the level left; settings: dose 50 µg/ml; time 3 day
[7] = test system: Trypanosoma brucei gambiense; test: Trypanocidal activity against Trypanosoma brucei gambiense IL1922 assessed as parasite growth inhibition at 50 ug/ml incubated for 3 days by Celltiter-Glo luminescence assay; assay type: functional; set-up: scale not given: the % may be the effect or the level left; settings: dose 50 µg/ml; time 3 day
[8] = test system: Trypanosoma brucei rhodesiense; test: Trypanocidal activity against Trypanosoma brucei rhodesiense assessed as parasite growth inhibition at 50 ug/ml incubated for 3 days by Celltiter-Glo luminescence assay; assay type: functional; set-up: scale not given: the % may be the effect or the level left; settings: dose 50 µg/ml; time 3 day
[9] = test system: Trypanosoma congolense; test: Trypanocidal activity against Trypanosoma congolense IL3000 assessed as parasite growth inhibition incubated for 3 days by Celltiter-Glo luminescence assay; settings: IL3000, 72 h
[10] = test system: Trypanosoma brucei brucei; test: Trypanocidal activity against Trypanosoma brucei brucei GUTat3.1 assessed as parasite growth inhibition incubated for 3 days by Celltiter-Glo luminescence assay; assay type: functional, organism-based; settings: GUTat3.1, 72 h
[11] = test system: Trypanosoma brucei rhodesiense; test: Trypanocidal activity against Trypanosoma brucei rhodesiense IL1501 assessed as parasite growth inhibition incubated for 3 days by Celltiter-Glo luminescence assay; assay type: functional, organism-based; settings: IL1501, 72 h
[12] = test system: Trypanosoma brucei gambiense; test: Trypanocidal activity against Trypanosoma brucei gambiense IL1922 assessed as parasite growth inhibition incubated for 3 days by Celltiter-Glo luminescence assay; assay type: functional, organism-based; settings: IL1922, 72 h

Oc1cc(O)c2c(c1)O[C@H](c1cc(O)c(O)c(O)c1)[C@H](O)C2 [EPIGALLOCATECHIN]
Activity [1]: 62.43% | Activity [2]: 66.56% | IC50 [3]: 1.58 µg/mL (≈ 5.16 µM) | IC50 [4]: 1.62 µg/mL (≈ 5.29 µM) | Activity [5]: 99.99% | Activity [6]: 99.94% | Activity [7]: 85.1% | Activity [8]: 100.06% | IC50 [9]: 2.38 µg/mL (≈ 7.77 µM)

Oc1ccc2c(c1)O[C@H](c1cc(O)c(O)c(O)c1)[C@@H](O)[C@H]2c1c(O)cc(O)c2c1O[C@H](c1ccc(O)c(O)c1)[C@H](O)C2
Activity [1]: 44.09% | Activity [2]: 60.48% | IC50 [3]: 5.51 µg/mL (≈ 9.52 µM) | IC50 [4]: 5.42 µg/mL (≈ 9.37 µM) | Activity [5]: 100.24% | Activity [6]: 100.13% | Activity [7]: 83.48% | Activity [8]: 100.09% | IC50 [9]: 7.15 µg/mL (≈ 12.4 µM)

Oc1ccc2c(c1)O[C@H](c1ccc(O)c(O)c1)[C@@H](O)[C@H]2c1c(O)cc(O)c2c1O[C@H](c1ccc(O)c(O)c1)[C@H](O)C2
Activity [1]: 12.85% | Activity [2]: 19.57% | Activity [5]: 4.88% | Activity [6]: 37.33% | Activity [7]: 9.9% | Activity [8]: 82.26%

COc1cc(O[C@@H]2O[C@H](CO)[C@@H](O)[C@H](O)[C@H]2O[C@@H]2OC[C@](O)(CO)[C@H]2O)cc(OC)c1OC
Activity [1]: 0% | Activity [2]: 0.73% | Activity [5]: 0% | Activity [6]: 0% | Activity [7]: 0% | Activity [8]: 60.74%

NCCC[C@](N)(C(=O)O)C(F)F [EFLORNITHINE, (S)-]
IC50 [3]: 10.4 µg/mL (≈ 57.2 µM) | IC50 [4]: 6.5 µg/mL (≈ 35.7 µM) | IC50 [10]: 7.03 µg/mL (≈ 38.6 µM) | IC50 [9]: 2.94 µg/mL (≈ 16.1 µM) | IC50 [11]: 8.38 µg/mL (≈ 46 µM) | IC50 [12]: 6.68 µg/mL (≈ 36.7 µM)

N=C(N)c1ccc(OCCCCCOc2ccc(C(=N)N)cc2)cc1 [PENTAMIDINE]
IC50 [3]: 0.00033 µg/mL (≈ 0.000969 µM) | IC50 [4]: 0.0017 µg/mL (≈ 0.00499 µM) | IC50 [10]: 0.014 µg/mL (≈ 0.0411 µM) | IC50 [9]: 0.11 µg/mL (≈ 0.323 µM) | IC50 [11]: 0.0099 µg/mL (≈ 0.0291 µM) | IC50 [12]: 0.0049 µg/mL (≈ 0.0144 µM)

Oc1cc(O)c2c(c1)O[C@H](c1ccc(O)c(O)c1)[C@@H](O)C2 [CIANIDANOL]
Activity [1]: 22.82% | Activity [2]: 2.35% | IC50 [3]: 14.9 µg/mL (≈ 51.3 µM) | IC50 [4]: 47.6 µg/mL (≈ 164 µM) | Activity [5]: 66.43% | Activity [6]: 22.03% | Activity [7]: 9.71% | Activity [8]: 100.03%

Oc1ccc([C@H]2Oc3cc(O)ccc3[C@@H](c3c(O)cc(O)c4c3O[C@H](c3cc(O)c(O)c(O)c3)[C@H](O)C4)[C@@H]2O)cc1
Activity [1]: 48.67% | Activity [2]: 57.75% | IC50 [3]: 3.32 µg/mL (≈ 5.9 µM) | IC50 [4]: 4.13 µg/mL (≈ 7.34 µM) | Activity [5]: 69.94% | Activity [6]: 69.89% | Activity [7]: 57.94% | Activity [8]: 90.97% | IC50 [9]: 5.32 µg/mL (≈ 9.46 µM)

Oc1ccc([C@H]2Oc3cc(O)ccc3[C@@H](c3c(O)cc(O)c4c3O[C@H](c3ccc(O)c(O)c3)[C@@H](O)C4)[C@@H]2O)cc1
Activity [1]: 20.95% | Activity [2]: 6.96% | Activity [5]: 0% | Activity [6]: 20.82% | Activity [7]: 6.42% | Activity [8]: 88.52%

Cc1cc(O)c(C(=O)c2c(O)cccc2O[C@@H]2O[C@H](CO)[C@@H](O)[C@H](O)[C@H]2O)c(C(=O)O)c1
Activity [1]: 15.74% | Activity [2]: 2.22% | Activity [5]: 0% | Activity [6]: 20.76% | Activity [7]: 5.44% | Activity [8]: 34.99%

Oc1ccc2c(c1)O[C@H](c1ccc(O)c(O)c1)[C@@H](O)[C@@H]2c1c(O)cc(O)c2c1O[C@H](c1cc(O)c(O)c(O)c1)[C@H](O)C2
Activity [1]: 10.18% | Activity [2]: 24.11% | IC50 [3]: 12.2 µg/mL (≈ 21.2 µM) | IC50 [4]: 10.9 µg/mL (≈ 18.9 µM) | Activity [5]: 57.8% | Activity [6]: 72.01% | Activity [7]: 14.68% | Activity [8]: 99.93% | IC50 [9]: 13.1 µg/mL (≈ 22.6 µM)

COc1cc(C(=O)O)cc(OC)c1O[C@@H]1O[C@H](CO)[C@@H](O)[C@H](O)[C@H]1O
Activity [1]: 9.64% | Activity [2]: 20.63% | Activity [5]: 0% | Activity [6]: 0% | Activity [7]: 14.44% | Activity [8]: 53.1%

Cc1cc(O[C@@H]2O[C@H](CO)[C@@H](O)[C@H](O)[C@H]2O)c(C(=O)c2c(O)cccc2O)c(C(=O)O)c1
Activity [1]: 18.9% | Activity [2]: 3.46% | Activity [5]: 29.06% | Activity [7]: 7.09% | Activity [8]: 85.05%

CC1CS(=O)(=O)CCN1/N=C/c1ccc([N+](=O)[O-])o1 (stereo not drawn) [NIFURTIMOX]
IC50 [4]: 0.42 µg/mL (≈ 1.46 µM) | IC50 [9]: 0.3 µg/mL (≈ 1.04 µM)
